In one test the target is B-Raf V600E (Homo sapiens, UniProt P15056, V600E). The test can be described thus: B-Raf V600E kinase activity assay (AlphaScreen, biotin-MEK1 substrate). The following applies: 100 μM ATP, 100 nM biotin-MEK1, 45 minutes at room temperature, read-out: Biochemical activity (IC50 μM) V600E. A digest of the protocol:
(§1)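 Each Raf enzyme (0.1 ng) phosphorylates 100 nM biotin-MEK1 in pH 7.0 HEPES with Mg2+/Mn2+, 100 μM ATP final, 45 min at room temperature. Phospho-MEK1/2 antibody with AlphaScreen beads is read after 3 h. IC50 comes from an 8-point dilution series.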

In the next test the target is B-Raf (Homo sapiens, UniProt P15056). Put plainly: B-Raf kinase activity assay (AlphaScreen, biotin-MEK1 substrate). The following applies: 100 μM ATP, 100 nM biotin-MEK1, 45 minutes at room temperature; read-out: Biochemical activity (IC50 μM) B-Raf. A digest of the protocol: as §1
For the next test, the target named is c-Raf-1 (Homo sapiens, UniProt P04049). Put plainly: c-Raf-1 kinase activity assay (AlphaScreen, biotin-MEK1 substrate). The following applies: 100 μM ATP, 100 nM biotin-MEK1, 45 minutes at room temperature; read-out: Biochemical activity (IC50 μM) c-Raf-1. A digest of the protocol:
as §1

In test [1] the test system is COLO205 colon adenocarcinoma (B-Raf V600E mutation). The test can be described thus: COLO205 cell growth inhibition (ATPlite luminescence). In kind it is cell-based. The note with it: Homo sapiens, COLO 205, 72 h, COLO205 cells, incubated 3 days with compound. The method, then: Compounds are assessed in a variety of cell based assays. For example human cell lines with B-Raf V600E mutation (A375 melanoma, SKMEL3 melanoma, and COLO205 colon adenocarcinoma), as well as tumorigenic cell lines with wild-type B-RAF (SW620 colon adenocarcinoma) or with Ras mutations (SKMEL2 melanoma and IPC298 melanoma). Similar assays may be used to assess additional tumorigenic cell lines with Ras mutations, including, but not limited to, M202, M207, M243, M244, M296, S117, HCT116, HCT15, DLD1, MiaPaCa, A549, NCI-H23, NCI-H460, HOP62, MDA-MB231, Hs-578T, HL60, MOLT-4, and CCRF-CEM.
On day 1, cells are counted, then centrifuged in a conical tube for 5 minutes at 1000 rpm. The supernatant is removed and cells are re-suspended as follows: • SW620 (ATCC catalog #CCL-27): resuspend in Leibovitz's L-15 medium, 2 mM L-glutamine, 10% fetal bovine serum to 6×10^4 cells/mL. • A375 (ATCC catalog #CRL-1619): resuspend in Dulbecco's modified Eagle's medium, 4 mM L-glutamine, 4.5 g/L D-glucose, 10% fetal bovine serum to 6×10^4 cells/mL. • COLO205 (ATCC catalog #CCL-222): resuspend in RPMI 1640, 2 mM L-glutamine, 1.5 g/L sodium bicarbonate, 4.5 g/L D-glucose, 10 mM HEPES, 1.0 mM sodium pyruvate, 10% fetal bovine serum to 6×10^4 cells/mL. • SKMEL2 (ATCC catalog #HTB-68): resuspend in Minimum Eagle essential medium, 2 mM L-glutamine, 1.5 g/L sodium bicarbonate, 0.1 mM non-essential amino acids, 1.0 mM sodium pyruvate, 10% fetal bovine serum to 6×10^4 cells/mL. • SKMEL3 (ATCC catalog #HTB-69): resuspend in McCoy's 5A medium, 1.5 mM L-glutamine, 15% fetal bovine serum to 6×10^4 cells/mL. • IPC298 (DSMZ catalog #ACC 251): resuspend in RPMI 1640, 2 mM L-glutamine, 10% fetal bovine serum to 6×10^4 cells/mL.
The cells are plated, 50 μL in each well of a 96-well dish (Corning 3610) and incubated at 37° C. in 5% CO2 overnight, cells plated to a final concentration of cells as follows:
On day 2, compound at a maximum concentration of 5 mM is serially diluted 1:3 (e.g. 10 μL with 30 μL dimethyl sulfoxide) for a total of 8 point titration with DMSO as a control. A 1 μL aliquot of each dilution point and control is added to 249 μL growth media and 50 μL is added to a well containing cells, providing 10 μM compound at the maximum concentration point. The cells are incubated for 3 days at 37° C. in 5% CO2.
On day 5, ATPlite 1 step Luminescence Assay System (Perkin Elmer #6016739) is brought to room temperature along with the cell cultures. ATPlite is added 25 μL to each well, shake for 2 minutes, and the cells are incubated at room temperature for 10 minutes, then luminescence is read on Safire reader. The measured luminescence correlates directly with cell number, such that the reading as a function of compound concentration is used to determine the IC50 value.
It is understood that the results of these assays may vary as assay conditions are varied. Inhibition levels determined under the conditions described herein represent a relative activity for the compounds tested under the specific conditions employed. The cell based assays are likely to show variability due to the complexity of the system and the sensitivity thereof to any changes in the assay conditions. […] Results for compounds that are tested and show substantially no inhibition below the highest tested concentration are represented as “-” in the tables below. In some instances, the compounds were not tested in all of the assays, or assay results were not valid, as indicated by NA in the tables below.

Chain of c-Raf-1 (P04049 whole entry Y340D/Y341D, form open): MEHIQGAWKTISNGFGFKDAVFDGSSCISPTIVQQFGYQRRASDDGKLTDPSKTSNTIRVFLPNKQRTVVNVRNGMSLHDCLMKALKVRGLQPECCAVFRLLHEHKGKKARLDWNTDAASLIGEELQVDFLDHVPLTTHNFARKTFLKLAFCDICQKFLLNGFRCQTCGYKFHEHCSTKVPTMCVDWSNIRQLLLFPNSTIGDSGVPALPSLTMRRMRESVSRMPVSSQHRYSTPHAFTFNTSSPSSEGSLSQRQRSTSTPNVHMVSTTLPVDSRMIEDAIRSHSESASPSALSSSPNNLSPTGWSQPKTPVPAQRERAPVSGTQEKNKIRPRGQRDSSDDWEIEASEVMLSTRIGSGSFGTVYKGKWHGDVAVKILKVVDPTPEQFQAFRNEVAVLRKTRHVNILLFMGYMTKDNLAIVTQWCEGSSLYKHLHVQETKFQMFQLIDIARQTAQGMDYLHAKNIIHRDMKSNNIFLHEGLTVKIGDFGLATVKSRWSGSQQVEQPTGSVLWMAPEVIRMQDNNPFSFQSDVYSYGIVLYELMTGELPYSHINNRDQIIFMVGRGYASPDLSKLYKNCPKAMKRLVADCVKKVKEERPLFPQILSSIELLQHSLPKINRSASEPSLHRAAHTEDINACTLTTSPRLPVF
Chain of B-Raf (P15056 whole entry): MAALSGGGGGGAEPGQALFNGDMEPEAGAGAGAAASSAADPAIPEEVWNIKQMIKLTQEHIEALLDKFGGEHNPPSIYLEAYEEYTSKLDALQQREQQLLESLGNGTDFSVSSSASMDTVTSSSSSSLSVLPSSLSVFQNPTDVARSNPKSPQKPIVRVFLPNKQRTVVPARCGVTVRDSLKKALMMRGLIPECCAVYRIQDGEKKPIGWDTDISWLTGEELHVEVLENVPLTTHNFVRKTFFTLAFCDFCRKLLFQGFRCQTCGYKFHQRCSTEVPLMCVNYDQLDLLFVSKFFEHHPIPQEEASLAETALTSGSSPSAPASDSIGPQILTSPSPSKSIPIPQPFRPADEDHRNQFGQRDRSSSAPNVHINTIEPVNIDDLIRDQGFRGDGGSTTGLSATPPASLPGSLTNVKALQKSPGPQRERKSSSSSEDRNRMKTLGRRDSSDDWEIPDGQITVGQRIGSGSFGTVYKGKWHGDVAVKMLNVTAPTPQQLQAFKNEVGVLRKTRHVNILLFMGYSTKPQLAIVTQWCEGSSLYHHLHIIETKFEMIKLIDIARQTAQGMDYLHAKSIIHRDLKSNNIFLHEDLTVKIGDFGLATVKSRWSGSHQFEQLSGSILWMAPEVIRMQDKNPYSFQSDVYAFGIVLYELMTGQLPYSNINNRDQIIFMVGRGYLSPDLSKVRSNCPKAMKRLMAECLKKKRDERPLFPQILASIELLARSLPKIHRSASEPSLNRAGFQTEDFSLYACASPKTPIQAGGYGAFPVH
Chain of B-Raf V600E (P15056 whole entry V600E): as the sequence (P15056 whole entry) above, with V600E counted along it

For the compound `CCCS(=O)(=O)Nc1ccc(F)c(C(=O)c2c[nH]c3ncc(-c4cnc(N)cn4)cc23)c1F` [P-1603, Propane-1-sulfonic acid {3-[5-(5-amino-pyrazin-2-yl)-1H-pyrrolo[2,3-b]pyridine-3-carbonyl]-2,4-difluoro-phenyl}-amide], the half-inhibitory concentration (IC50) at B-Raf V600E was under 0.1 µM; on B-Raf it was under 0.1 µM; on c-Raf-1, under 0.1 µM; in test [1], under 1 µM.

Turning to `CCCS(=O)(=O)Nc1ccc(F)c(C(=O)c2c[nH]c3ncc(-c4ccc(-c5cccnc5)s4)cc23)c1F` [P-1200, Propane-1-sulfonic acid {2,4-difluoro-3-[5-(5-pyridin-3-yl-thiophen-2-yl)-1H-pyrrolo[2,3-b]pyridine-3-carbonyl]-phenyl}-amide], the IC50 is under 0.1 µM at B-Raf V600E, under 0.1 µM at B-Raf, under 0.1 µM on c-Raf-1 and over 1 µM in test [1].

Take `CCCS(=O)(=O)Nc1ccc(F)c(C(=O)c2c[nH]c3ncc(-c4ccccn4)cc23)c1F` [P-1401, Propane-1-sulfonic acid [2,4-difluoro-3-(5-pyridin-2-yl-1H-pyrrolo[2,3-b]pyridine-3-carbonyl)-phenyl]-amide]: the half-inhibitory concentration (IC50) on B-Raf V600E is under 0.1 µM; on B-Raf, under 0.1 µM; on c-Raf-1 it was under 0.1 µM; in test [1], over 1 µM.

With `CCCS(=O)(=O)Nc1ccc(F)c(C(=O)c2c[nH]c3ncc(-c4csc(-n5ccnc5)n4)cc23)c1F` [P-1106, Propane-1-sulfonic acid {2,4-difluoro-3-[5-(2-imidazol-1-yl-thiazol-4-yl)-1H-pyrrolo[2,3-b]pyridine-3-carbonyl]-phenyl}-amide], the IC50 at B-Raf V600E was under 0.1 µM; on B-Raf, under 0.1 µM; at c-Raf-1 it was under 0.1 µM; in test [1], over 1 µM.

As for `CCCS(=O)(=O)Nc1ccc(F)c(C(=O)c2c[nH]c3ncc(-c4cccc5[nH]ccc45)cc23)c1F` [P-0019, Propane-1-sulfonic acid {2,4-difluoro-3-[5-(1H-indol-4-yl)-1H-pyrrolo[2,3-b]pyridine-3-carbonyl]-phenyl}-amide], the half-maximal inhibitory concentration (IC50) on B-Raf V600E was under 0.1 µM; on B-Raf it was under 0.1 µM; on c-Raf-1, under 0.1 µM; in test [1], over 1 µM.

Take `CCCS(=O)(=O)Nc1ccc(F)c(C(=O)c2c[nH]c3ncc(-c4cnc(-n5ccnc5)cn4)cc23)c1F` [P-1602, Propane-1-sulfonic acid {2,4-difluoro-3-[5-(5-imidazol-1-yl-pyrazin-2-yl)-1H-pyrrolo[2,3-b]pyridine-3-carbonyl]-phenyl}-amide]: the 50% inhibitory concentration (IC50) at B-Raf V600E is under 0.1 µM; on B-Raf it was under 0.1 µM; on c-Raf-1, under 0.1 µM; in test [1] it was under 1 µM.

As to `CCCS(=O)(=O)Nc1ccc(F)c(C(=O)c2c[nH]c3ncc(-c4cn5ccccc5n4)cc23)c1F` [P-0021, Propane-1-sulfonic acid [2,4-difluoro-3-(5-imidazo[1,2-a]pyridin-2-yl-1H-pyrrolo[2,3-b]pyridine-3-carbonyl)-phenyl]-amide], the IC50 is under 0.1 µM on B-Raf V600E, under 0.1 µM on B-Raf, under 0.1 µM on c-Raf-1 and under 1 µM in test [1].

In the case of `CCCS(=O)(=O)Nc1ccc(F)c(C(=O)c2c[nH]c3ncc(-c4cnc(-n5ccnc5C)s4)cc23)c1F` [P-1105, Propane-1-sulfonic acid (2,4-difluoro-3-{5-[2-(2-methyl-imidazol-1-yl)-thiazol-5-yl]-1H-pyrrolo[2,3-b]pyridine-3-carbonyl}-phenyl)-amide], the concentration for half-maximal inhibition (IC50) was under 0.1 µM at B-Raf V600E, under 0.1 µM at B-Raf, under 0.1 µM on c-Raf-1 and under 1 µM in test [1].

Consider `CCCS(=O)(=O)Nc1ccc(F)c(C(=O)c2c[nH]c3ncc(-c4csc(N(C)C)n4)cc23)c1F` [P-1102, Propane-1-sulfonic acid {3-[5-(2-dimethylamino-thiazol-4-yl)-1H-pyrrolo[2,3-b]pyridine-3-carbonyl]-2,4-difluoro-phenyl}-amide], for which the half-inhibitory concentration (IC50) at B-Raf V600E is under 0.1 µM; on B-Raf it was under 0.1 µM; at c-Raf-1, under 0.1 µM; in test [1] it was over 1 µM.

`CCCS(=O)(=O)Nc1ccc(F)c(C(=O)c2c[nH]c3ncc(-c4ccc(-c5noc(C)n5)s4)cc23)c1F` [P-1203, Propane-1-sulfonic acid (2,4-difluoro-3-{5-[5-(5-methyl-[1,2,4]oxadiazol-3-yl)-thiophen-2-yl]-1H-pyrrolo[2,3-b]pyridine-3-carbonyl}-phenyl)-amide]: the IC50 on B-Raf V600E is under 0.1 µM; on B-Raf, under 0.1 µM; at c-Raf-1 it was under 0.1 µM; in test [1] it was over 1 µM.

Consider `CCCS(=O)(=O)Nc1ccc(F)c(C(=O)c2c[nH]c3ncc(-c4ccc(S(N)(=O)=O)s4)cc23)c1F` [P-1202, 5-{3-[2,6-Difluoro-3-(propane-1-sulfonylamino)-benzoyl]-1H-pyrrolo[2,3-b]pyridin-5-yl}-thiophene-2-sulfonic acid amide], for which the IC50 at B-Raf V600E was under 0.1 µM; on B-Raf it was under 0.1 µM; at c-Raf-1, under 0.1 µM; in test [1], under 1 µM.

Take `CCCS(=O)(=O)Nc1ccc(F)c(C(=O)c2c[nH]c3ncc(-c4ccc5c(c4)C(=O)NC5)cc23)c1F` [P-1702, Propane-1-sulfonic acid {2,4-difluoro-3-[5-(3-oxo-2,3-dihydro-1H-isoindol-5-yl)-1H-pyrrolo[2,3-b]pyridine-3-carbonyl]-phenyl}-amide]: the IC50 at B-Raf V600E was under 0.1 µM; at B-Raf, under 0.1 µM; at c-Raf-1, under 0.1 µM; in test [1] it was under 1 µM.

As to `CCCS(=O)(=O)Nc1ccc(F)c(C(=O)c2c[nH]c3ncc(-c4cn5ccc(C(F)(F)F)nc5n4)cc23)c1F` [P-0022, Propane-1-sulfonic acid {2,4-difluoro-3-[5-(7-trifluoromethyl-imidazo[1,2-a]pyrimidin-2-yl)-1H-pyrrolo[2,3-b]pyridine-3-carbonyl]-phenyl}-amide], the IC50 was under 0.1 µM on B-Raf V600E, under 0.1 µM on B-Raf, under 0.1 µM on c-Raf-1 and over 1 µM in test [1].

Regarding `CCCS(=O)(=O)Nc1ccc(F)c(C(=O)c2c[nH]c3ncc(-c4ccc5c(c4)CNC5=O)cc23)c1F` [P-1701, Propane-1-sulfonic acid {2,4-difluoro-3-[5-(1-oxo-2,3-dihydro-1H-isoindol-5-yl)-1H-pyrrolo[2,3-b]pyridine-3-carbonyl]-phenyl}-amide], the half-inhibitory concentration (IC50) on B-Raf V600E is under 0.1 µM; on B-Raf, under 0.1 µM; at c-Raf-1, under 0.1 µM; in test [1] it was under 1 µM.

The values are drawn from patent publication US9440969B2, “Compounds and methods for kinase modulation, and indications therefor” (PLEXXIKON INC., priority 2009, dated 2016).
